Results as given in patent publication US20260327233A1, “Heteroaryl Compounds as Ligand Directed Degraders of IRAK4” (Celgene Corporation, priority 2023, published 2026).
pEC50, pIC50: −log10 of the molar value. Where a name gives a salt, the structure may show the parent alone.

Key:
IRAK4 [1] = target: T1, IRAK4 (Homo sapiens, UniProt Q9NWZ3); assay: IRAK4 PhosphoSens Biochemical Assay (BIOCHEM); settings: IRAK4 1 nM; ATP and Sox conjugated peptide substrate AQT0326; pH 7.5; room temperature; 240 minutes
T1 sequence (Q9NWZ3 1-460): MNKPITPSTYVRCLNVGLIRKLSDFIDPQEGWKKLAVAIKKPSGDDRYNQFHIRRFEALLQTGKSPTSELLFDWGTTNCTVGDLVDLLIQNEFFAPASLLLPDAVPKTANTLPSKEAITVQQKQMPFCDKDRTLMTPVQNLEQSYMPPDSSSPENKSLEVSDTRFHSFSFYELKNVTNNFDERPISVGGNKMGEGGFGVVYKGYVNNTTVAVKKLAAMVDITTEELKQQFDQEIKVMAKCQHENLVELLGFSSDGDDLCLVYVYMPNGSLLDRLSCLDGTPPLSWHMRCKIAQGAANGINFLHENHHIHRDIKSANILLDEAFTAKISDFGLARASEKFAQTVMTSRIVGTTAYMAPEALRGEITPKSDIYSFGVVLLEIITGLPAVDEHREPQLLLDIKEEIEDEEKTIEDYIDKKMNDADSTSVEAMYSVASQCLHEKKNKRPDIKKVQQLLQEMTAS
Protocol: The PhosphoSens® biochemical assay was performed as described by the vendor (AssayQuant Technologies Inc. Marlborough, MA). A 1.25× stock solution of IRAK4 (PV4002, ThermoFisher Scientific, Waltham, MA) and a 5× stock solution of ATP and Sox conjugated peptide substrate, AQT0326 (CSKS-AQT0326B, AssayQuant Technologies), were prepared in 1× kinase reaction buffer consisting of 50 mM HEPES, pH 7.5, 0.01% Brij-35, 0.5 mM EGTA, 20 mM MgCl2 and 1 mM DTT. 10 μL of the ATP and substrate solution mix, for a final concentration of 200 µM ATP and […] peptide substrate, was added to a Corning 3574 384-well, white, non-binding surface microtiter plate containing 0.5 μL of serially diluted test compounds prepared in DMSO. The reactions were started with the addition of 40 μL of the enzyme solution, for a final IRAK4 concentration of 1 nM, and monitored every 71 seconds for 240 minutes at λEX 360/λEM 485 in a BioTek Synergy H4 plate reader (Agilent Technologies, Santa Clara, CA) at room temperature. The initial linear portions of the progress curves were fit according to a linear equation to yield the slopes and converted to % inhibition based on a value of 100% activity for the no inhibitor treated control. IC50 values of each compound were obtained by fitting the % inhibition-compound concentration curves using Dotmatics software (Dotmatics, Bishops Stortford, Hertfordshire, England),

IRAK4 [2] = target: T1, IRAK4; assay: ALE THP1 HTRF (IRAK4 HTRF in THP1 cell lysate, Cisbio HTRF kit); assay type: cell-based; design: THP1 Homogeneous Time Resolved Fluorescence (ALE THP1 HTRF) Procedure; endogenous in cells; host or cells: THP1; settings: anti-IRAK4 d2 / anti-IRAK4 k antibodies
Protocol: Cell culture media was prepared in a tissue culture hood in a sterile environment by adding 10% FBS and 1% Penicillin Streptomycin to 500 mL no phenol red RPMI 1640 media. The media was filtered through a Nalgene Bottle Top Filter and stored at 4° C.
For Homogenous Time Resolved Fluorescence (HTRF) assays, a Cisbio HTRF kit was used, which included: Lysis Buffer #1 4×, Blocking Reagent #3 100×, 20× Antibody 1 (Anti-IRAK4 d2), 20× Antibody 2 (Anti-IRAK4 k), and Detection Buffer.
4× Lysis Buffer was stored at 4° C. For use as 1× Lysis buffer, the 4× solution was diluted with de-ionized water (distilled water, Gibco Cat. #15230279) and 100× Blocking Reagent in a 1:3:0.04 volume ratio.
20× Antibody Solution aliquots were stored at −80° C. and the Detection Buffer was stored at 4° C. For use as a 1× Antibody Solution, the 20× Antibody Solution aliquot was diluted with Detection Buffer in a 1:19 volume ratio.
Cells were lysed at room temperature for 45 min with shaking. A BCA protein assay was performed and normalization was conducted to the desired total protein concentration with 1× lysis buffer. Next, 1× Antibody Solutions were prepared by adding 380 μL Detection Buffer to 20 μL 20× Antibody Solution aliquots and mixing well. 1× Antibody Solutions were combined 1:1 and briefly vortexed. For control wells, 20 μL 1× anti IRAK4-k Antibody Solution was saved. The 384-well plate (ProxiPlate-384 Plus, Perkin Elmer Cat. #6008289) was loaded by adding 4 μL of the mixed Antibody Solution to empty wells using a single channel repeater. Using a multi-channel repeater, 16 μL lysate was added per well, and any bubbles that were formed were popped with 20 μL pipette tips and Kimwipe edges. In column 10, triplicates of each control were prepared. In wells A10, B10, and C10, buffer control was prepared by adding 16 μL Lysis Buffer and 4 μL Detection Buffer. In wells D10, E10, and F10, cryptate control was prepared by adding 16 μL Lysis Buffer, 2 μL Detection Buffer, and 2 μL 1× anti-IRAK4-k Antibody Solution. In wells G10, H10, and 110, a negative control was prepared by adding 16 μL Lysis Buffer and 4 μL mixed Antibody Solution. The plate was sealed with a clear seal and covered with an aluminum lid. The plate was spun down at 800 g for 5 min and incubated in the dark at room temperature overnight. The next day, the plate was spun down at 800 g for 5 min. The samples were analyzed by a plate reader (Envision, PerkinElmer) using the Desnor 384 HTRF program.

Row | pIC50 (IRAK4 [1]) | pEC50 (IRAK4 [2]) | ALE THP1 HTRF YMIN (IRAK4 [2]) | Structure (SMILES)
1 | > 9.30 | 8.10 | 18% | N[C@@H]1C[C@@H](F)CN(c2ccn3ncc(C(=O)Nc4cn([C@H]5CC[C@H](C(=O)N6CCN(c7ccc8c(c7)C(=O)N(C7CCC(=O)NC7=O)C8=O)CC6)CC5)nc4C(F)F)c3n2)C1 (stereo partly drawn) [Compound P-15]
2 | 8.92 | < 5.00 | 73% | N#Cc1nn(C2CCC(C(=O)N3CCC(c4ccc5c(c4)C(=O)N(C4CCC(=O)NC4=O)C5)CC3)CC2)cc1NC(=O)c1cnn2ccc(N3CCNCC3)nc12 (stereo not drawn) [Compound P-10]
3 | 9.05 | 8.05 | 29% | CN(C[C@H]1CC[C@H](n2cc(NC(=O)c3cnn4ccc(N5CCOCC5)nc34)c(C(F)F)n2)CC1)[C@H]1CC[C@H](Nc2cccc3c2C(=O)N(C2CCC(=O)NC2=O)C3=O)CC1 (stereo partly drawn) [Compound P-36]
4 | 8.49 | < 5.00 | 94% | N#Cc1nn([C@H]2CC[C@H](C(=O)N3CCN(c4ccc5c(c4)CN(C4CCC(=O)NC4=O)C5=O)CC3)CC2)cc1NC(=O)c1cnn2ccc(N3CCNCC3)nc12 (stereo partly drawn) [Compound P-4]
5 | 9.30 | < 5.00 | 60% | N#Cc1nn([C@H]2CC[C@H](C(=O)N3CCN(c4ccc5c(c4)C(=O)N(C4CCC(=O)NC4=O)C5=O)CC3)CC2)cc1NC(=O)c1cnn2ccc(N3CCC[C@@H](N)C3)nc12 (stereo partly drawn) [Compound P-5]
6 | 8.85 | < 5.00 | 78% | N#Cc1nn([C@H]2CC[C@H](CN3CCC(c4ccc5c(c4)C(=O)N(C4CCC(=O)NC4=O)C5)CC3)CC2)cc1NC(=O)c1cnn2ccc(N3CCNCC3)nc12 (stereo partly drawn) [Compound P-9]
7 | > 9.30 | < 5.00 | 74% | N#Cc1nn(C2CCC(C(=O)N3CCN(c4ccc5c(c4)C(=O)N(C4CCC(=O)NC4=O)C5=O)CC3)CC2)cc1NC(=O)c1cnn2ccc(N[C@@H]3CCCC[C@@H]3N)nc12 (stereo partly drawn) [Compound P-7]
8 | > 9.30 | 8.15 | 27% | O=C1CCC(N2Cc3cc(N4CCC(NC(=O)[C@H]5CC[C@H](n6cc(NC(=O)c7cnn8ccc(N9CCOCC9)nc78)c(C(F)F)n6)CC5)CC4)ccc3C2=O)C(=O)N1 (stereo partly drawn) [Compound P-31, N-[3-(difluoromethyl)-1-[4-[[1-[2-(2,6-dioxo-3-piperidyl)-1-oxo-isoindolin-5-yl]-4-piperidyl]carbamoyl]cyclohexyl]pyrazol-4-yl]-5-morpholino-pyrazolo[1,5-a]pyrimidine-3-carboxamide]
9 | > 9.30 | 8.15 | 14% | N[C@@H]1C[C@@H](F)CN(c2ccn3ncc(C(=O)Nc4cn([C@H]5CC[C@H](C(=O)NC6CCN(c7ccc8c(c7)C(=O)N(C7CCC(=O)NC7=O)C8=O)CC6)CC5)nc4C(F)F)c3n2)C1 (stereo partly drawn) [Compound P-19]
10 | > 9.30 | 8.22 | 12% | CN(C[C@H]1CC[C@H](n2cc(NC(=O)c3cnn4ccc(N5C[C@H](N)C[C@@H](F)C5)nc34)c(C(F)F)n2)CC1)C1CCN(c2ccc3c(c2)CN(C2CCC(=O)NC2=O)C3=O)CC1 (stereo partly drawn) [Compound P-32, N-[3-(Difluoromethyl)-1-[4-[[[1-[2-(2,6-dioxo-3-piperidyl)-1-oxo-isoindolin-5-yl]-4-piperidyl]-methyl-amino]methyl]cyclohexyl]pyrazol-4-yl]-5-[(3r,5r)-3-amino-5-fluoro-1-piperidyl]pyrazolo[1,5-a]pyrimidine-3-carboxamide hydrochloride]
11 | 8.80 | 5.00 | 73% | O=C1CCC(N2C(=O)c3ccc(N4CCN(C(=O)[C@H]5CC[C@H](n6cc(NC(=O)c7cnn8ccc(N9CCNCC9)nc78)c(C(F)(F)F)n6)CC5)CC4)cc3C2=O)C(=O)N1 (stereo partly drawn) [Compound P-14]
12 | > 9.30 | 8.40 | 11% | N[C@@H]1C[C@@H](F)CN(c2ccn3ncc(C(=O)Nc4cn([C@H]5CC[C@H](C(=O)NC6CCN(c7ccc8c(c7)CN(C7CCC(=O)NC7=O)C8=O)CC6)CC5)nc4C(F)F)c3n2)C1 (stereo partly drawn) [Compound P-24]
13 | > 9.30 | 8.22 | 9% | CN(c1ccc2c(c1)CN(C1CCC(=O)NC1=O)C2=O)C1CCN(C[C@H]2CC[C@H](n3cc(NC(=O)c4cnn5ccc(N6C[C@H](N)C[C@@H](F)C6)nc45)c(C(F)F)n3)CC2)CC1 (stereo partly drawn) [Compound P-34]
14 | > 9.30 | 7.70 | 12% | CN(C[C@H]1CC[C@H](n2cc(NC(=O)c3cnn4ccc(N5C[C@H](N)C[C@@H](F)C5)nc34)c(C(F)F)n2)CC1)[C@H]1CC[C@H](Nc2cccc3c2C(=O)N(C2CCC(=O)NC2=O)C3=O)CC1 (stereo partly drawn) [Compound P-37]
15 | 8.07 | 7.17 | 30% | N#Cc1nn([C@H]2CC[C@H](C(=O)N3CCN(c4ccc5c(c4)C(=O)N(C4CCC(=O)NC4=O)C5=O)CC3)CC2)cc1NC(=O)c1cnn2ccc(N3CCNCC3)nc12 (stereo partly drawn) [Compound P-1, N-(3-cyano-1-((1r,4r)-4-(4-(2-(2,6-dioxopiperidin-3-yl)-1,3-dioxoisoindolin-5-yl)piperazine-1-carbonyl)cyclohexyl)-1H-pyrazol-4-yl)-5-(piperazin-1-yl)pyrazolo[1,5-a]pyrimidine-3-carboxamide hydrochloride]
16 | > 9.30 | 7.59 | 24% | Cc1nn([C@H]2CC[C@H](C(=O)NC3CCN(c4ccc5c(c4)C(=O)N(C4CCC(=O)NC4=O)C5=O)CC3)CC2)cc1NC(=O)c1cnn2ccc(N3C[C@H](N)C[C@@H](F)C3)nc12 (stereo partly drawn) [Compound P-27, N-[1-[4-[[1-[2-(2,6-dioxo-3-piperidyl)-1,3-dioxo-isoindolin-5-yl]-4-piperidyl]carbamoyl]cyclohexyl]-3-methyl-pyrazol-4-yl]-5-[(3R,5R)-3-amino-5-fluoro-1-piperidyl]pyrazolo[1,5-a]pyrimidine-3-carboxamide hydroxhloride]
17 | > 9.30 | 8.52 | 27% | N[C@@H]1C[C@@H](F)CN(c2ccn3ncc(C(=O)Nc4cn([C@H]5CC[C@H](C(=O)N6CCN(c7ccc8c(c7)C(=O)N(C7CCC(=O)NC7=O)C8)CC6)CC5)nc4C(F)(F)F)c3n2)C1 (stereo partly drawn) [Compound P-22]
